Experimental data from paper PMC3726599, “A Metabolically-Stabilized Phosphonate Analog of Lysophosphatidic Acid Attenuates Collagen-Induced Arthritis” (PLoS ONE, 2013).

Legend:
recombinant ATX [1] = target: T1, recombinant ATX (Homo sapiens, UniProt Q13822); experiment: Amplex Red activity assay, LPC hydrolysis by recombinant ATX (Echelon); type: biochemical; conditions: substrate Km, recombinant ATX from Echelon
T1 construct: purchased SinoBiological Inc (main data); R&D (additional Km values)
Experimental: BrP-LPA inhibition was also tested with the more sensitive reagent Amplex Red based on the Amplex™ Red PLD assay kit (Molecular Probes, Interchim, Montluçon, France) originally designed for the measurement of the PLD activity, [49]. All reactions were performed with purified ATX (2 nM) from Echelon at 37°C. The ability of ATX to cleave LPC was detected using a coupled assay that monitors the release of choline using Amplex Red (10 μΜ), choline oxidase (0.2 Units/ml) and horseradish peroxidise (2 Units/ml) The rate of fluorescence increase was measured in a fluorescence plate reader (Tecan Infinite 200 microplate reader from Tecan Trading AG, Switzerland) for up to 80 minutes; the fluorescence increase was linear during that time-frame for all cases. Rates were normalized to control reactions that contained all reaction components except for the test compound.
(§1) The biochemistry of lyso-PLD was assessed by following the kinetics data using a wide panel of different ATX substrates [FS-3, different LPC species (14:0, 16:0, 18:0, 18:1)], three different recombinant ATX proteins (R&D, Sino-Biological and Echelon) and three different ATX activity assays (FS-3, TOOS, Amplex Red). The ATX activity was measured at different substrate concentrations (typically from 1-1000 μM) in order to examine whether ATX follows Michaelis-Menten kinetics. The Michaelis constant (Km) was obtained by fitting the substrate dependence of V (ATX activity) to a rectangular hyperbola using the non-linear regression analysis of the statistical software package Prism 4.0 (GraphPad Software, Inc.). Km and Vmax were evaluated from the rectangular hyperbola curve with the use of GraphPad software.
(§2) For in vitro inhibition measurements, BrP-LPA was dissolved in water as a stock solution (4 mM) and appropriate dilutions were made in water. The inhibition of ATX by BrP-LPA was measured employing 2 nM recombinant ATX, 50 μΜ LPC (14:0, 16:0, 18:0) and 0.01 to 100 μmol/L of BrP-LPA (final concentrations). The in vitro inhibition of ATX by BrP-LPA was evaluated with three different assays (FS-3, Amplex Red, and TOOS). […] BrP-LPA was also tested for its ability to inhibit mouse plasma ATX activity. Diluted mouse plasma was used as the source of ATX and the analysis of inhibition was made with TOOS as the in vitro inhibition assay.
The inhibition model (competitive, noncompetitive, or mixed type inhibition) was evaluated by graphical analysis with Lineweaver–Burk double reciprocal plots (1/[velocity] versus 1/[substrate]) and Cornish-Bowden plot ([substrate]/[velocity] versus [Inhibitor]). These plots were generated by the measurement of ATX activity in the presence of different BrP-LPA concentrations (0–10 μΜ) and increased amounts of 16:0 LPC (100, 200, 400 μΜ). The inhibition constants (Ki) and IC50 values were determined using the mean values obtained from two independent experiments. The relative remaining ATX activity or LPA levels in the presence of the BrP-LPA was expressed as a percentage of the corresponding control value (ATX activity, LPA levels without inhibitor). The IC50 value was determined graphically by plotting the log concentration of BrP-LPA versus relative remaining ATX activity or LPA levels of each test sample using the sigmoid dose–response fitting method (Prism® software). The IC50 (concentration of BrP-LPA sufficient to inhibit ATX activity or diminish LPA levels by 50%) was calculated by the equation f = y0+a/(1+exp(-(x-x0)/b)) given by SigmaPlot 11.0 (Systat Software, Inc., San Jose, CA, USA).
Ki was calculated using the equation of Cheng and Prusoff: Ki = IC50/1+[S]/Km, where Ki is the binding affinity of the inhibitor, IC50 is the functional strength of the inhibitor, [S] is substrate concentration and Km is the concentration of substrate at which enzyme activity is half maximal. Whereas the IC50 value for a compound may vary between experiments depending on experimental conditions, Ki is an absolute value. […]

recombinant ATX [2] = target: T1, recombinant ATX; experiment: TOOS activity assay, LPC hydrolysis by recombinant ATX; type: biochemical; conditions: substrate Km, TOOS
Experimental: ATX/LysoPLD activity was assessed based on the amount of choline released from LPC with the use of TOOS (N-ethyl-N-(2-hydoroxy-3-sulfopropyl)-3-methylaniline) reagent. In this assay ATX-mediated LPC-liberated choline is oxidised by choline oxidase to betaine and hydrogen peroxide (H2O2). The latter in the presence of horseradish peroxidase reacts with TOOS and 4-aminoantipyrene (4-AAP) to form a pink quinoneimine dye measured at 555 nm.
Diluted plasma samples (100 fold dilution; final EDTA concentration 0.5 mM) or recombinant ATX protein (2 nM) were incubated with LPC in the presence of 100 mmol/l Tris–HCl/pH 9.0, 500 mmol/l NaCl, 5 mmol/l MgCl2, 5 mmol/l CaCl2, 60 μM CoCl2 and 0.05% Triton X-100 for 3 h at 37°C at a final volume of 100 μl. It should be noted that EDTA was used not only as an anticoagulant but also as an inhibitor of ATX activity ex vivo [46], in order to suppress artificial LPA production during blood withdrawal and plasma preparation; this is because the same samples were used in phospholipid measurements.
The liberated choline was detected by adding 100 μl of a color mix containing 4-AAP and TOOS (0.3 mM), horseradish peroxidase (5.3 UnitmL^−1) and choline oxidase (2 UnitmL^−1). Absorbance was measured at 555 nm and data were analyzed using the statistical software package Prism 4.0 (Graphpad Software Inc, La Jolla, CA, USA). For each sample and control the absorbance was plotted against time and the slope (da/min) for the linear (steady-state) portion of each reaction profile was calculated. Absorbance units were converted to nmol of choline/min/ml by comparison with a choline standard curve or by use of the extinction coefficient for the quinoneimine dye according to the following equation: [drawing 1] Where Vt* is the total volume of reaction in ml (0.2 ml); Vs* is the volume of sample in ml; e is the millimolar extinction coefficient of quinoneimine dye under the assay conditions (e = e = […]); and 1/2: Factor based on the fact that 1 mol of hydrogen peroxide produces 1/2 mol of quinoneimine dye.
as §1, §2
The inhibition model (competitive, noncompetitive, or mixed type inhibition) was evaluated by graphical analysis with Lineweaver–Burk double reciprocal plots (1/[velocity] versus 1/[substrate]) and Cornish-Bowden plot ([substrate]/[velocity] versus [Inhibitor]). These plots were generated by the measurement of ATX activity in the presence of different BrP-LPA concentrations (0–10 μΜ) and increased amounts of 16:0 LPC (100, 200, 400 μΜ). […]

[3] = system: K/BxN serum transfer RA model; design: method as in PMID 18491295, PMID 22354754; conditions: cited from earlier work
[4] = system: COX-2 expression from SFs; design: method as in PMID 18802115; conditions: cited from earlier work
[5] = design: method as in PMID 22354754; conditions: cited from earlier work
[6] = recombinant ATX from Sinobiological Inc

Km (recombinant ATX [2]; [6]) [µM]	Structure (SMILES)	Km (recombinant ATX [1]) [µM]	Km (recombinant ATX [2]; recombinant ATX from R&D) [µM]	also measured
–	CCCCCCCCCCCCCC(=O)OC[C@@H](O)COP(=O)([O-])OCC[N+](C)(C)C [14:0 LPC, reference compound]	80 ± 9	–	–
60 ± 11	CCCCCCCCCCCCCCCC(=O)OC[C@@H](O)COP(=O)([O-])OCC[N+](C)(C)C [16:0 LPC, reference compound]	–	90	–
55 ± 10	CCCCCCCC/C=C\CCCCCCCC(=O)OC[C@@H](O)COP(=O)([O-])OCC[N+](C)(C)C [18:1 LPC, reference compound]	–	–	–
–	Cc1noc(-c2ccc(CSCCC(=O)O)cc2)c1NC(=O)OC(C)c1ccccc1Cl (stereo not shown) [ki16425]	–	–	arthritis severity [3]: reduction of arthritis severity; LPA-mediated COX-2 expression [4]: inhibit LPA-mediated COX-2 expression; half-life [5]: very short half-life

Structure (SMILES)	Km (recombinant ATX [2]; [6]) [µM]	Km (recombinant ATX [1]) [µM]	Km (recombinant ATX [2]; recombinant ATX from R&D) [µM]	also measured
CCCCCCCCCCCCCCCCCC(=O)OC[C@@H](O)COP(=O)([O-])OCC[N+](C)(C)C [18:0 LPC, reference compound]	82 ± 11	116 ± 13	114	–
